Test results as given in paper PMC12081905, “Ortho-functionalization of a ^211At-labeled aryl compound provides stabilization of the C-At bond against oxidative dehalogenation” (Scientific Reports, 2025).

How the values were obtained:
[1] = Stability assay in oxidizing/acidic medium (chemical oxidation assay, KMnO4); format: physicochemical; conditions: radio-HPLC
Experimental: Stability of ^211At-labeled compounds in oxidizing media. […] Adapted from Teze et al.[10], it consists in an incubation of the ^211At-labeled product in 50 mM acetate buffer (pH = 4.7) containing a 1 mM potassium permanganate solution (Fig. 5).
(§1) ^211At was produced at the Arronax cyclotron facility using the ^209Bi(α,2n) ^211At reaction and recovered from the irradiated target in chloroform using a dry distillation protocol adapted from the procedure previously reported by Lindegren et al.[26] Before use, the ^211At solution was reduced to dryness under a gentle stream of nitrogen. […] To quantify free astatine that remains trapped in the HPLC system during the elution, 50 µL of an aqueous sodium sulfite solution (10 mg mL^−1) were injected after each analysis to release free astatine from the HPLC system with the flow rate set at 1.20 mL/min with the following gradient: t = 0: 90% A, 10% B; t = 2–6 min: 100% B with A = H2O with 0.05% TFA and B = CH3CN with 0.05% TFA. The non-radioactive iodinated compounds were analyzed using this HPLC system and their retention times were used as references for identification of their astatinated analogues. […]
Each peak is then integrated, providing each peak area (noted A(A), A(B) etc…) to quantify the species present. […]

[2] = system: rat liver microsomes (CYP450); test: Stability assay in rat liver microsomal medium with NADPH regeneration system; format: in vitro ADME; conditions: 37 °C, radio-HPLC
Source text: (§2) Since oxidation by CYP450 enzymes is a plausible cause of oxidative deastatination within targeted cells or in the liver, we also assessed the stability of our compounds against liver microsomes. Liver microsomes contain CYP450, a family of oxidase enzymes that were used in our assay, adapted from Schmitt et al.[14] and using a nicotinamide adenine dinucleotide phosphate (NADPH) redox regeneration system to regenerate the redox properties of CYP450. For comparison, we performed the stability assay in rat and human liver microsomes (Fig. 7).
as §1, with “al.[26]” for “al.[26] Before use, the ^211At solution was reduced to dryness under a gentle stream of nitrogen.”

[3] = system: human liver microsomes (CYP450); test: Stability assay in human liver microsomal medium with NADPH regeneration system; format: in vitro ADME; conditions: 37 °C, radio-HPLC
Source text: as §2
as §1, with “al.[26]” for “al.[26] Before use, the ^211At solution was reduced to dryness under a gentle stream of nitrogen.”

[4] = design: method as in PMID 28566709; conditions: DFT, resulting oxidized compounds; cited from earlier work

Compound: CCNC(=O)c1cccc([211At])c1 [[^211At]AEB, 3-[^211At]astato-N-ethylbenzamide]
- fate of the starting 211At-compound in oxidizing medium ([1]; 50 mM acetate buffer pH 4.7, 1 mM KMnO4, up to 20 h): almost complete degradation
- starting compound / metabolites after 20 h incubation in rat microsomes [2]: practically no presence of the starting compound
- starting compound / metabolites after 20 h incubation in human microsomes [3]: practically no presence of the starting compound

Compound: CCOC(=O)c1cccc([211At])c1 [compound 1, ethyl 3-[^211At]astatobenzoate]
- bond dissociation energy of the carbon-halogen bond [4]: 28.2 kcal mol^−1

Compound: OCc1ccccc1[211At] [compound 2, (2-[^211At]astatophenyl)methanol]
- free astatine (release of astatine) after 20 h incubation in oxidizing medium ([1]; 50 mM acetate buffer pH 4.7, 1 mM KMnO4, room temperature, 20 h, n = 3): 12%
